Molecules are shown by their SMILES. “Also recorded” adds a separate entry of the source.

The conditions of series [1]: cited from earlier work.
Series [2] deals with apoptotic cells. As to the kind of experiment: Apoptosis by terminal deoxynucleotidyl transferase-mediated dUDP end-labeling staining of skin flap. It counts as in vivo, rat. Conditions: 20× magnification, 4 cm from the proximal flap; control 15.1±6.2; p=0.045. As for the experimental part:
(§1) Tissues from the proximal and distal parts of the flaps were collected on postoperative day 7 and were fixed in 10% paraformaldehyde and embedded in paraffin, with representative sections depicted in FIG. 1. For histologic evaluation and CD31 immunohistochemical staining, sections taken 6 cm from the proximal flap were deparaffinized in xylene and rehydrated in a series of ethanol washes. For detection of CD31+ cells, sections were incubated with anti-mouse CD31 antibody (BD Pharmingen, San Jose, Calif.) at a dilution of 1:200 at 4° C. overnight. For analysis of angiogenesis, the CD31+ vessels in five fields were counted by light microscopy (20×) for each group. A TdT In Situ Cell Death Detection Kit (R&D Systems, Minneapolis, Minn.) was used to compare apoptotic protein expression in sections taken 4 cm from the proximal flap. The ratio of terminal deoxynucleotidyl transferase-mediated dUDP end-labeling-positive cells was calculated according to the manufacturer's protocol. Terminal deoxynucleotidyl transferase-mediated dUDP end-labeling-positive cells were also counted by light microscopy (20×) in 10 fields.

Series [3] in a line: Side effect monitoring, weights and gross necropsy. It counts as in vivo, rat. As for the experimental part: (§2) The animals were treated according to institutional animal care and use committee guidelines. Animals were double-housed for the preoperative period, then single-housed in the immediate postoperative period to protect flap integrity. Isoflurane anesthesia was used for all operations and daily intraperitoneal injections. Elizabethan collars were placed on rats to prevent ingestion of the topical solution after application. No dressing was used over the topical application site due to absorption. Animals were observed daily for side effects, including wound infections or dehiscence. Weights were taken on the day of surgery and on postoperative day 7. Blood samples were obtained on postoperative day 7 immediately before the animals were euthanized by means of cardiac puncture to determine hemoglobin, hematocrit, white blood cell count, and platelet count. Animals were euthanized by means of intracardiac potassium chloride on postoperative day 7, and gross necropsies were performed by a veterinarian to assess macroscopic organ changes after 14 total days of treatment.

Series [4] concerns ischemic skin flap. Description: Skin flap necrosis, rat ischemic dorsal pedicle skin flap (McFarlane) model. It is filed as in vivo. As to conditions: for mean percentage of skin flap necrosis: postoperative day 3; for mean percentage of skin flap necrosis / flap necrosis: intraperitoneal + topical; for mean percentage of skin flap necrosis / postsurgical flap necrosis percentage: control 41.3±3.8 percent; for flap necrosis: postoperative day 7; for flap necrosis / percentage of flap necrosis: control 50.9±3.9 percent; for postsurgical flap necrosis percentage: postsurgical day 3; for percentage of flap necrosis: postsurgical day 7. The method, then: (§3) After institutional animal care and use committee approval, hairless male rats (8 weeks old; 250 g) were obtained from Charles River Laboratories (Wilmington, Mass.). Six experimental groups of rats (n=24) and three control groups (n=12) underwent skin flap surgery by surgeons blinded to the experimental treatment arm. First, to assess both systemic and topical administration together, four experimental groups (n=16) were administered dimethyloxalylglycine (Cayman Chemical, Ann Arbor, Mich.) both intraperitoneally and topically for a total dose of 6 mg/kg/day (n=4), 12 mg/kg/day (n=4), 24 mg/kg/day (n=4), or 48 mg/kg/day (n=4). Next, to assess topical versus intraperitoneal administration, two experimental groups were administered dimethyloxalylglycine at 48 mg/kg/day either topically (n=4) or intraperitoneally (n=4). Intraperitoneal administration consisted of dimethyloxalylglycine suspension in phosphate-buffered saline (pH 7.4) to a maximum dosage of 10 ml/kg. Topical delivery consisted of administration of dimethyloxalylglycine using dimethylsulfoxide as a delivery vehicle at a maximum dosage of 9 ml/kg undiluted solution. Topical application was performed in the outline of the proposed skin flap. To replicate a short therapeutic course before and after flap surgery, the study was designed to include a 14-day treatment period, with dimethyloxalylglycine administered 7 days before and 7 days after flap surgery (FIG. 1). Because prolyl hydroxylase inhibitors target the HIF pathway […], this design was chosen to allow time for downstream neovascularization.
(§4) Throughout the same 14-day treatment course, control groups were administered an equal volume of intraperitoneal phosphate-buffered saline (pH 7.4) and topical dimethylsulfoxide. A dorsal pedicle skin flap based on the McFarlane model measuring 3×6 cm was elevated in the areolar tissue plane deep to the panniculus carnosus layer on each rat on treatment day 7. Consistency in flap design was ensured using a model outline for size and shape and positioning according to bony landmarks. After flap elevation, the flap was sutured in place with 4-0 polypropylene. Surgeons were blinded intraoperatively to treatment arm with a random numbers scheme. Seven days after surgery, the animals were euthanized and histologic analysis performed in postmortem tissue specimens.
(§5) Photographic measurements of necrosis were taken on postoperative days 1, 3, and 7. Flap necrosis was determined grossly by the presence of cyanosis and congestion on postoperative day 1 (FIG. 2) and the presence of scab formation and loss of skin elasticity on subsequent postsurgical days. At 7 days, tissue perfusion was assessed by means of intraperitoneal injection of 1 ml of sodium fluorescein 10% at 60 mg/kg and fluorescent imaging with an in vivo imaging system (IVIS Kinetic; PerkinElmer, Waltham, Mass.) using LIVING IMAGE® software with a 465-nm excitation and green fluorescent protein emission filter. Necrotic area was calculated using ImageJ Software (National Institutes of Health, Bethesda, Md.). Digital photographs and IVIS images were evaluated and analyzed by an investigator blinded to the assigned treatment group.

Series [5] concerns ischemic skin flap. Description: Skin flap tissue perfusion, sodium fluorescein injection and IVIS imaging. It counts as in vivo, rat. Conditions: postoperative day 7; for percentage of unperfused tissue: intraperitoneal + topical, control 39.9±3.8 percent; for percentage of unperfused tissue / percentage of overall flap perfusion: p<0.001; for percentage of overall flap perfusion: control 31.4±2.3 percent. As for the experimental part:
as §3, §4, §5

Series [6] is described as follows: Complete blood counts after 14 total days of treatment. It counts as in vivo, rat. The method, then: as §2
Series [7] concerns VEGF. Description: Tissue VEGF concentration by enzyme-linked immunosorbent assay. It is filed as in vivo, rat. Conditions: skin flap 6 cm from the proximal flap, postoperative day 7; control 22.0±1.7 pg/ml; p=0.007. The method, then:
Tissue samples were harvested on postoperative day 7 and dissected on ice, submerged in liquid nitrogen, then stored at −80° C. Tissue samples from tissue sections taken at the same distance 6 cm from the proximal flap were then homogenized in lysis buffer containing 100 mM Tris hydrochloride (pH 7.4), 150 mmol sodium chloride, 1% Triton X-100, 0.5% sodium deoxycholate, and 1 μg/ml protease inhibitor cocktail (Sigma Aldrich, St. Louis, Mo.). The samples were centrifuged to pellet the debris, and the supernatants were analyzed following the manufacturer's protocol for a rat tissue extract VEGF enzyme-linked immunosorbent assay kit (Sigma-Aldrich).

Series [8] concerns HIF-1α. As to the kind of experiment: HIF-1α immunohistochemistry of skin flap epidermis. As to conditions: 4 cm from the proximal flap, postoperative day 7, control 3.5±0.6, p<0.001. It is filed as in vivo, rat. As for the experimental part: For analysis of HIF-1α, sections were taken 4 cm from the proximal flap and incubated with anti-rabbit HIF-1α antibody (Novus Biologicals, Littleton, Colo.) at a dilution of 1:1600. A Discovery Ultra immunohistochemical system (Ventana Medical Systems, Oro Valley, Ariz.) was used for staining with OmniMap anti-Rb horseradish peroxidase and red chromogen was used for detection. HIF-1α-positive nuclei in the epidermis were counted by light microscopy (20×) in five fields. All immunohistochemical measurements were performed by a blinded investigator.

Series [9] concerns CD31+ vessels. Description: Neovascularization: CD31 immunohistochemistry and hematoxylin and eosin histology of skin flap. It is filed as in vivo, rat. The method, then:
as §1

Take `O=c1c(-n2ccnn2)c[nH]n1-c1cc(N2CCOCC2)ncn1` [Molidastat]: the “most common adverse effect in clinical trials” value in [1] is on record as “hypertension resulting from polycythemia”.
As to `O=C(O)CNC(=O)c1ncc(-c2cccc(Cl)c2)cc1O` [Vadadustat], the “most common adverse effect in clinical trials” value in [1] is on record as “hypertension resulting from polycythemia”.
Consider `COC(=O)CNC(=O)C(=O)OC` [dimethyloxalylglycine], for which, in [2], the “number of apoptotic cells per high-power field” value worked out at 1.7±0.6. Further, the gross necropsy findings entry in series [3] (after 14 total days of treatment) is reported as “no evidence of cardiovascular changes, splenomegaly, or polycythemia; also recorded: no macroscopic organ changes were observed”. The “weights versus control animals” value in series [3] (experimental day 1 or day 14, all doses) is on record as “no differences”. Further, the “wound infections, dehiscence, behavioral changes in feeding or activity” value in [3] (rat, in vivo) is “No wound infections, dehiscence, or behavioral changes in feeding or activity were observed”. The cyanosis of flaps result in series [4] (postoperative day 1, treated versus control flaps (FIG. 2: 24 mg/kg/day intraperitoneal and topical)) is given as “Decreased cyanosis”. Also, the “mean percentage of skin flap necrosis” value in series [4] (total 6 mg/kg/day, p=0.13) is listed as 30.2±3.9%; in series [4] (total 12 mg/kg/day, p=0.001) it was 12.3±4.5%; in series [4] (total 24 mg/kg/day, p=0.008), 20.3±1.8%; in series [4] (total 48 mg/kg/day, p<0.001) it was 7.7±3.1%. In addition, the flap necrosis in [4] (total 6 mg/kg/day, p=0.004) was 26.7±1.3%; in series [4] (total 12 mg/kg/day, p=0.002) it was 20.6±7.0%; in series [4] (total 24 mg/kg/day, p=0.003), 25.0±2.5%; in series [4] (total 48 mg/kg/day, p<0.001), 11.6±4.4%. Also, the “postsurgical flap necrosis percentage” value in series [4] (intraperitoneal alone 48 mg/kg/day, p=0.002) worked out at 14.7±2.6%; in [4] (topical alone 48 mg/kg/day, p=0.005), 18.9±2.8%. Further, the “percentage of flap necrosis” value is on record as 16.3±5.2% in series [4] (intraperitoneal alone 48 mg/kg/day, p<0.001) and 25.7±2.3% in series [4] (topical alone 48 mg/kg/day, p=0.003). In addition, in series [4] (topical application and intraperitoneal administration), the “increase in flap viability” value is “nearly threefold increase”. In series [5] (6 to 48 mg/kg/day), the “dose dependence of tissue perfusion” value is reported as “higher dimethyloxalylglycine doses leading to increased tissue perfusion”. Also, the “percentage of unperfused tissue” value in series [5] (total 6 mg/kg/day) was 11.4±1.7%; in [5] (total 12 mg/kg/day), 9.4±4.2%; in [5] (total 24 mg/kg/day), 4.7±2.6%; in [5] (total 48 mg/kg/day), 1.4±0.9%. For the same compound, the entries for the “percentage of overall flap perfusion” value in [5] (intraperitoneal alone 48 mg/kg/day) and in series [5] (topical alone 48 mg/kg/day) were 7.2±3.8% and 6.9±1.3%, respectively. Further, in [6] (control 15.1±0.5 g/dl, p=0.3), the mean hemoglobin was found to be 14.2 ± 1.0 g/dL. For the same compound, the “mean white blood cell count” value in series [6] (control 18.2±5.6×10^3/p1, p=0.08) is 10.4±1.6 ×10^3/p1. The hematocrit in [6] (control 43.3±1.1 percent, p=0.2) worked out at 40.8±2.6%. For the same compound, the platelet count in series [6] (control 1446±218×10^9/liter, p=0.8) is listed as 1510±247 ×10^9/liter. The “tissue VEGF concentration” value in series [7] was 37.1 ± 3.4 pg/mL. For the same compound, the “number of HIF-1α-stained nuclei per high-power field” value in series [8] came out at 21.0±2.7. Further, the “number of CD31-labeled vessels” value in series [9] (per high-power field at 20×, 6 cm from the proximal flap, after 14 total days of treatment, control 8.8±1.2, p=0.004) is 18.8±2.2. In [9] (skin flap after 14 total days of treatment, versus controls), the “neovascularization on hematoxylin and eosin-stained tissue” value is given as “greater neovascularization”.
